Patent US7569517B2, “4-biphenyl-substituted pyrazolidin-3 5-diones pesticide agent and/or microbicide and/or herbicide” (Bayer CropScience AG, priority 2003, dated 2009)

Experiments:
Assay type in all cases: in vivo
[1] = system: greenhouse red spider mite (Tetranychus urticae); test: Tetranychus test (OP-resistance/spray treatment) (Example E); settings: 100 g/ha; sprayed bean leaf discs
Procedure: Tetranychus Test (OP-resistance/Spray Treatment)
• Solvents: 78 parts by weight of acetone • 1.5 parts by weight of dimethylformamide • Emulsifier: 0.5 part by weight of alkylaryl polyglycol ether
To prepare a suitable preparation of active compound, 1 part by weight of active compound is mixed with the stated amounts of solvents and emulsifier, and the concentrate is diluted with emulsifier-containing water to the desired concentration.
Discs of bean leaves (Phaseolus vulgaris) which are infested by all stages of the greenhouse red spider mite (Tetranychus urticae) are sprayed with a preparation of active compound of the desired concentration.
After the desired period of time, the activity in % is determined. 100% means that all spider mites have been killed; 0% means that none of the spider mites have been killed.

[2] = system: monocotyledonous and dicotyledonous weed and crop plants; test: Herbicidal pre-emergence action (Example G); settings: greenhouse, 320 g of a.i./ha
From the text: Herbicidal Pre-emergence Action
Seeds of monocotyledonous and dicotyledonous weed and crop plants are placed into sandy loam in wood fibre pots and covered with soil. The test compounds, formulated in the form of wettable powders (WP), are then, in various dosages as aqueous suspension with a water application rate of 600 l/ha (converted), with 0.2% of wetting agent added, applied to the surface of the covering soil. After the treatment, the pots are placed in a greenhouse and kept under good growth conditions for the test plants. The visual assessment of the emergence damage on the test plants is carried out after a trial period of 3 weeks by comparison with untreated controls (herbicidal effect in percent (%): 100% effect=the plants have died, 0% effect=like control plants).

[3] = system: monocotyledonous and dicotyledonous weed and crop plants; test: Herbicidal post-emergence action (Example H); settings: greenhouse, 320 g of a.i./ha
Procedure: (§1) Herbicidal Post-emergence Action
Seeds of monocotyledonous and dicotyledonous weed and crop plants are placed into sandy loam in wood fibre pots, covered with soil and cultivated in a greenhouse under good growth conditions. 2-3 weeks after sowing, the test plants are treated at the one-leaf stage. The test compounds, formulated as wettable powders (WP), are, in various dosages with a water application rate of 600 l/ha (converted), with 0.2% of wetting agent added, sprayed onto the green parts of the plants. After the test plants were kept in a greenhouse under optimum growth conditions for about 3 weeks, the effect of the preparations is rated visually in comparison to untreated controls (herbicidal effect in percent (%): 100% effect=the plants have died, 0% effect=like control plants).

[4] = system: monocotyledonous and dicotyledonous weed and crop plants (cereals); test: Herbicidal post-emergence action, use of safeners, container trials with cereals in the greenhouse (Example I); settings: without safener
Procedure: as §1
Seeds of monocotyledonous and dicotyledonous weed and crop plants are placed into sandy loam in wood fibre pots or in plastic pots, covered with soil and cultivated in a greenhouse, during the vegetation period also outdoors outside of the greenhouse, under good growth conditions. 2-3 weeks after sowing, the test plants are treated at the one- to three-leaf stage. The test compounds, formulated as wettable powders (WP), or emulsifiable concentrates (EC), are, in various dosages with a water application rate of 300 l/ha (converted), with wetting agent (0.2 to 0.3%) added, sprayed onto the plants and the surface of the soil. 3-4 weeks after the treatment of the test plants, the effect of the preparations is rated visually in comparison to untreated controls (herbicidal effect in precent (%): 100% effect=the plants have died, 0% effect=like control plants).
If it is additionally to be tested whether safeners can improve the plant compatibility of test substances in the case of the crop plants, the following option is used for applying the safener: • seeds of the crop plants are, before sowing, dressed with the safener substance (the amount of safener is stated in percent, based on the weight of seed) • before the application of the test substances, the crop plants are sprayed with the safener at a certain application rate per hectare (usually 1 day before the application of the test substances) • the safener is applied together with the test substance as a tank mix (the amount of safener is stated in g/ha or as a ratio, based on the herbicide).
By comparing the effect of test substances on crop plants without or with safener treatment, it is possible to assess the effect of the safener substance.

Meloidogyne incognita = test: Meloidogyne test (Example A); settings: 20 ppm active compound; nematicidal action by formation of galls on lettuce roots; 100% = no galls
Procedure: • Solvent: 7 parts by weight of dimethylformamide • Emulsifier: 2 parts by weight of alkylaryl polyglycol ether
To produce a suitable preparation of active compound, 1 part by weight of active compound is mixed with the stated amounts of solvent and emulsifier, and the concentrate is diluted with water to the desired concentration.
Containers are filled with sand, solution of active compound, Meloidogyne incognita egg/larvae suspension and lettuce seeds. The lettuce seeds germinate and the plants develop. On the roots, galls are formed.
After the desired period of time, the nematicidal action is determined in % by the formation of galls. 100% means that no galls were found; 0% means that the number of galls on the treated plants corresponds to that of the untreated control.

SMILES	Kill rate in % after 5d [1]	herbicidal effect, Echinochloea ([2]; Echinochloea)	herbicidal effect, Setaria ([2]; Setaria)	herbicidal effect, Sorghum ([2]; Sorghum)	herbicidal effect, Soybeans ([2]; Soybeans)	herbicidal effect, Wheat ([2]; Wheat)	herbicidal effect, Alopecurus ([3]; Alopecurus)	herbicidal effect, Digitaria ([3]; Digitaria)	herbicidal effect, Lolium ([3]; Lolium)	herbicidal effect, Setaria ([3]; Setaria)	herbicidal effect, Sugarbeets ([3]; Sugarbeets)	Summer barley observed (%) ([4]; 25 g of a.i./ha)	Summer wheat observed (%) ([4]; 25 g of a.i./ha)	Summer barley observed (%) ([4]; 50 g of a.i./ha)	Summer wheat observed (%) ([4]; 50 g of a.i./ha)	Summer barley observed (%) ([4]; 100 g of a.i./ha)	Summer wheat observed (%) ([4]; 100 g of a.i./ha)	Effect in % after 14d (Meloidogyne incognita)
Cc1cc(-c2ccc(Cl)cc2)cc(C)c1C1(Cl)C(=O)N2CCOCCN2C1=O [Ex. I-4-1]	90%	70%	80%	70%	0%	0%	80%	100%	80%	100%	10%	40%	60%	95%	97%	97%	97%	
Cc1cc(-c2ccc(Cl)cc2)cc(C)c1C1(Cl)C(=O)N2CCCCN2C1=O [Ex. I-3-1]														80%	60%	80%	60%	100%
